Reference: US20080233080A1, “Inulins, Levans, Fructans And Other Smaller-Than-Cellulose Termite Feeding Attractants, And Termite” (priority 2004, published 2008)
Several values for one entry are separate records, joined by “and”; a condition that tells them apart may be missing. Identical values can stand only once. Entries after “also recorded” stand apart in the source; their conditions may differ.

Assays:
[1] = test system: Reticulitermes spp.; assay: Diet consumption by groups of termites in no-choice and choice bioassay arenas; type: in vivo
Method: Subterranean Termite Collection. Five wild populations of Reticulitermes spp. were collected from fallen wood in forested areas of Fairfax County (N38° 43.29′ and W77° 30.93′), Montgomery County (N37° 12.46′ and W80° 24.47′), Rockbridge County (N37° 48.00′ and W 79° 25.00′), and Roanoke County (N37° 19.53′ and W79° 58.53′), Virginia. Termites were harvested by placing the infested wood into large storage bins (70 L; Sterlite®; Sterlite Corporation, Townsend, Mass.) on top of damp, recycled paper towels (Acclaim®; Fort James Corporation, Deerfield, Ill.). As the wood dried out the termites moved into the moist paper towels. The infested paper towels were then transferred to plastic storage containers (11.3 L; Rubbermaid, Wooster, Ohio) containing vermiculite (500 g; moistened 150% by weight (Lenz M., T. L. Amburgey, D. Zi-Rong, H. Kuhne, J. K. Mauldin, A. F. Preston, and M. Westcott, 1987, Interlaboratory studies on termite-wood decay fungi associations: I. Determination of maintenance conditions for several species of termites (Isoptera: Mastotermitidae, Termopsidae, Rhinotermitidae), Sociobiology, 13:1-56; Cherokee Vermiculite Horticultural Fine Cherokee Products, Jefferson City, Tenn.). Subterannean termite containers were stored in complete darkness (˜21° C. and 97% RH) until needed for testing. Subterranean termites were tested within one month after being collected from the field.
Termite Diet Preparation. Recycled brown paper toweling (Acclaim®) was cut into squares (35×35 mm) and used as a diet substrate. The diet substrates were placed into glass Pyrex Petri dishes (100×20 mm; Corning Glass Works, Corning, N.Y.) and dried overnight in a single wall, gravity convection, laboratory oven (60° C.; Blue M SW-17TA; Blue M Electric Company; Blue Island, Ill.). After 24 hours, each diet substrate was taken out of the oven, numbered in the corner with a pencil and weighed on a balance (Mettler AE163; Lab Tech, Inc.) to the nearest 0.1 mg. After weighing, certain diets were treated with radiochemicals. Because hexaflumuron cannot be stored at temperatures greater than 50° C., radioisotopes were only applied after the diets were oven dried. The weight of the isotopes on the diet after air drying was determined to be negligible.
Control Diets. Control diets were treated with the visual marker only. The visual marker was formulated by dissolving Nile Blue-A in acetone and applying a 150 μl aliquot of dye solution to each diet substrate. The final Nile Blue-A concentration on the diet was 0.1%.
^14C-hexaflumuron Diets. A stock solution of technical grade hexaflumuron, ^14C-hexaflumuron (0.5% total hexaflumuron concentration) and 0.1% Nile Blue-A was formulated in acetone. An aliquot (150 μl) of the solution was applied to each diet substrate so that each diet contained 0.27 μCi of the ^14C-hexaflumuron.
^3H-inulin Diets. A stock solution of the ^3H-inulin and 0.1% Nile Blue-A (1.95 mg) was formulated in acetone. An aliquot (150 μl) of the solution was applied to each diet substrate so that each diet contained […] of the ^3H-inulin. ^3H has a lower energy spectrum than ^14C, so ˜8× more ^3H-inulin was added to the diets than ^14C-hexaflumuron to facilitate radioisotope quantification process after termite consumption.
Bioassay Arenas: Consumption bioassays were performed in choice and non-choice bioassay arenas. Arena tests were used to evaluate termite consumption of hexaflumuron treated bait alone and in the presence of a competing food source.
No-Choice Bioassay. No-choice bioassay arenas were assembled by connecting two Petri dishes with Tygon tubing (inner diameter 3.2 mm, outer diameter 6.4 mm). Petri dishes were washed 4 times in tap water to eliminate static electricity. Tygon tubing was soaked in tap water for 3 hours and allowed to air dry prior to use. One Petri dish (95 mm×15 mm; Fisher Scientific) served as a termite housing chamber and was filled with moist sand (˜45 g). […]

[2] = test system: Reticulitermes spp.; assay: Diet consumption by individual termites, radioisotope quantification by scintillation counting; type: in vivo; details: for feeding preference of individual termites: choice test 14C-hexaflumuron and 3H-inulin
Method: Diet Consumption by Individual Termites. After mortality was recorded for a particular treatment/day, 20 surviving termites were randomly selected from each radioactive treatment arena for isotope analysis. Random selection was not limited to dyed termites. Non-dyed termites were also selected. The termites were thoroughly rinsed with distilled water three times to remove any radioactivity from the outside of the body. They were next placed on paper towels to remove excess water. Each rinsed, dried termite was placed into a separate microcentrifuge tube (1.5 ml; Fisher Brand), and the body was homogenized in 200 μl of distilled water. The homogenate was transferred into a glass scintillation vial (20 ml; Kimble Glass, Vineland, N.J.). Microcentrifuge tubes were rinsed three times with 200 μl of distilled water per rinse. Each rinse was added to the homogenate in the scintillation vial. An aliquot of scintillation cocktail (8 ml; Scintiverse® BD; Fisher Scientific, Fair Lawn, N.J.) was then added to each vial.
The amount of radioactivity contained within each sample was quantified by using a scintillation counter (Beckman Coulter, Inc.™ LS 6500, Fullerton, Calif.). The individual termite samples contained very low dpm counts. Therefore, sample vials containing only a single isotope (from no-choice tests) were counted for 10 minutes. However, sample vials that potentially could contain dual isotopes (from choice-tests) were counted for 20 minutes to improve the accuracy of the counts.
Background Radioactivity Measurements. After termite mortality had been recorded, 2 termites were selected at random from each no-choice, control arena. These termites were rinsed, homogenized, and prepared for scintillation counting as previously described. Control termites were counted in the scintillation counter for 10 minutes to record background radioactivity. Background radioactivity was measured for each treatment group (choice and no-choice) at both 2 d and 5 d. Background measurements also accounted for any quenching that occurred due to the termite body fragments occluding light transmission in the scintillation counter. Before the test data was analyzed, background radioactivity counts for a particular sample was subtracted from the sample's spectral peak (Traniello, J. F. A., R. B. Rosengaus and C. K. Levy, 1985, Single and double isotope labeling of social insect colonies, Entomol. Exp. Appl., 38:87-92; Suarez, M. E. and B. L. Thorne, 2000, Effects of food type and foraging distance on trophallaxis in the subterranean termite Reticulitermes virginicus (Isoptera: Rhinotermitidae), Sociobiology, 35: 487-498).
Radiolabel Counting using Dual Label Technique. Specialized procedures were required for analysis of radiolabeled samples containing both ^14C and ^3H. Due to the potential low/high counts and spillover of ^14C and ^3H in the counting window, a series of dilutions was made from extracted diets (with known amounts of activity) to correct for spillover. The range of activity values for ^14C and ^3H and a combination of the two isotopes within the samples was determined. Spillover correction curves were generated for the range of sample data and used to correct those samples where high levels of both ^14C and ^3H occurred and spillover was evident.
Quantification of radioactive isotopes from individual termite cadavers was used to determine how much a single termite consumed of ^14C-hexaflumuron diet in the presence of a competing food source. Mean consumption of ^14C-hexaflumuron diet in the no-choice test was compare with ^14C-hexaflumuron consumption in the choice test using GLM ANOVA with Least Squares adjustment for multiple comparisons of mean values. For all tests data was analyzed separately for 2 d and 5 d.
Finally, mean consumption of the two radioisotopes, ^14C-hexaflumuron and ^3H-inulin, in the choice tests were compared to determine whether termites preferred one diet over another. […]

[3] = test system: subterranean termites; details: subterranean termites fed hexaflumuron bait; cited from earlier work
[4] = test system: eastern subterranean termites; details: in vivo; cited from earlier work
[5] = test system: Reticulitermes sp.; assay: Inulin treated vs untreated paper towel diets placed on yellow pine termite harborages; type: in vivo; details: average of 7 d
Method: Subterranean termites, Reticulitermes sp. were reared in the laboratory in Nunc dishes containing strips of yellow pine wood as a food resource and termite harborage. Inulin treated and untreated paper towel diets were weighed and then placed side by side on the top of the termite harborages (strips of yellow pine). Termites were allowed to forage for an average of 7 d. After the test period, the diets were removed, weighed and consumption of each towel diet was recorded as a percentage of total consumption of both paper towel diets.

[6] = choice test hexaflumuron and inulin diets, 2 d
[7] = choice test hexaflumuron and inulin diets, 5 d
[8] = choice test 14C-hexaflumuron and 3H-inulin diets, 5 d
[9] = choice test hexaflumuron and inulin diets, 5 d, listed as inulin

For `O=C(NC(=O)c1c(F)cccc1F)Nc1cc(Cl)c(OC(F)(F)C(F)F)c(Cl)c1` [Hexaflumuron, N-(((3,5-dichloro-4-(1,1,2,2-tetrafluoroethoxy)phenyl)-amino)carbonyl)-2,6-difluorobenzamide], the “Hexaflumuron Consumption (mg) (Mean ± SEM)” value ([1]; choice test hexaflumuron and control diet, 2 d) was 1.6 ± 0.9a mg, the “Hexaflumuron Consumption (mg) (Mean ± SEM)” value ([1]; choice test hexaflumuron and control diet, 2 d, listed as hexaflumuron) was 1.6 mg and the “Hexaflumuron Consumption (mg) (Mean ± SEM)” value ([1]; choice test hexaflumuron and control diet, 5 d) was 3.2 ± 1.4a mg. For the same molecule, the “Hexaflumuron Consumption (mg) (Mean ± SEM)” value ([1]; choice test hexaflumuron and control diet, 5 d, listed as hexaflumuron) was 3.2 mg, the “Consumption (mg) (Mean ± SEM)” value [1, 6] was 1.0 ± 0.8a mg and the “Consumption (mg) (Mean ± SEM)” value ([1]; choice test hexaflumuron and inulin diets, 2 d, listed as hexaflumuron) was 1.0 mg. The “Consumption (mg) (Mean ± SEM)” value [1, 7] was 0.2 ± 0.1b mg and 0.2 ± 0.1 a mg, the “Consumption (mg) (Mean ± SEM)” value ([1]; choice test hexaflumuron and inulin diets, 5 d, listed as 14C-hexaflumuron) was 0.2 mg and the “Consumption (mg) (Mean ± SEM)” value ([1]; choice test hexaflumuron and inulin diets, 5 d, listed as hexaflumuron) was 0.2 mg. For the same molecule, the “Hexaflumuron Consumption (mg) (Mean ± SEM)” value ([1]; no-choice test, 2 d, groups of 100 termite workers, 0.5% hexaflumuron diet) was 3.0 ± 0.7a mg, the “Hexaflumuron Consumption (mg) (Mean ± SEM)” value ([1]; no-choice test, 2 d, groups of 100 termite workers, 0.5% hexaflumuron diet, listed as 14C-hexaflumuron) was 3 mg and the “Hexaflumuron Consumption (mg) (Mean ± SEM)” value ([1]; no-choice test, 2 d, groups of 100 termite workers, 0.5% hexaflumuron diet, listed as hexaflumuron) was 3.0 mg. For the same molecule, the “Hexaflumuron Consumption (mg) (Mean ± SEM)” value ([1]; no-choice test, 5 d, groups of 100 termite workers, 0.5% hexaflumuron diet) was 11.4 ± 3.9a mg, the “Hexaflumuron Consumption (mg) (Mean ± SEM)” value ([1]; no-choice test, 5 d, groups of 100 termite workers, 0.5% hexaflumuron diet, listed as 14C-hexaflumuron) was 11.4 mg and the “Hexaflumuron Consumption (mg) (Mean ± SEM)” value ([1]; no-choice test, 5 d, groups of 100 termite workers, 0.5% hexaflumuron diet, listed as hexaflumuron) was 11.4 mg. For the same molecule, the “consumption by an individual termite” value ([2]; choice test 14C-hexaflumuron and 3H-inulin diets, 2 d) was 7.3 µg, the “consumption by an individual termite” value [2, 8] was 2.3 µg and the “feeding preference of individual termites” value ([2]; 2 d) was “did not prefer either diet”. The “consumption by an individual termite” value ([2]; choice test competing with control diet, 2 d) was 14.5 µg, the “consumption by an individual termite” value ([2]; choice test in presence of control diet, 5 d) was 19.3 µg and the “consumption by an individual termite” value ([2]; no-choice test, 2 d) was 38.9 µg. The “consumption by an individual termite” value ([2]; no-choice test, 5 d) was 56.9 µg, the LT50 [3] was ~26.6 days and the onset of toxicity [3] was “approximately 15 d”. The “mean half life within the body of a termite” value [4] was ~220 h.

With inulin the “preferential consumption versus untreated towels and yellow pine wood” value [5] was “preferentially consumed inulin treated paper towels over untreated towels and yellow pine wood”, the “Termite Consumption Mean % ± SEM (percentage of total consumption of both paper towel diets)” value ([5]; choice, in presence of yellow pine) was 64.7 ± 4.5% and the “Consumption (mg) (Mean ± SEM)” value [1, 6] was 2.0 ± 0.6 mg. For the same molecule, the “Consumption (mg) (Mean ± SEM)” value [1, 7] was 6.0 ± 1.3 mg and 6.0 ± 1.3 b mg, the “Consumption (mg) (Mean ± SEM)” value [1, 9] was 6.0 mg and the “feeding preference of termite populations (consumption significantly greater than 50% of total)” value [1, 9] was “preference for the inulin diet was indicated; also recorded: preference for the inulin treated bait”. For the same molecule, the “consumption of inulin treated bait relative to Hexaflumuron treated bait” value ([1]; choice test, 5 d, Table B) was 30 times, the “consumption by an individual termite” value [2, 8] was 19.4 µg and the “feeding preference of individual termites” value ([2]; 2 d) was “did not prefer either diet”. For the same molecule, the “feeding preference of individual termites” value ([2]; 5 d, listed as 3H-inulin) was “significant preference” and the “feeding preference of individual termites” value ([2]; 5 d, listed as inulin) was “significant preference for the inulin treated bait”.
